From patent publication US20240239752A1, “BICYCLIC HETEROAROMATIC INHIBITORS OF KLK5” (BioCryst Pharmaceuticals, Inc., priority 2021, published 2024)

target: T1, recombinant human KLK5 (Homo sapiens, UniProt Q9Y337); test: Kallikrein (KLK) 5 enzymatic assay (Boc-VPR-AMC fluorogenic substrate); type: biochemical; settings: recombinant human KLK5 0.1 μg/well, Boc-VPR-AMC 100 μM, pH 7.5, room temperature, 1% DMSO; tested a minimum of three times
T1 construct: purchased Novoprotein or R&D Systems C415 or 1108-SE
T1 sequence (Q9Y337 23-293): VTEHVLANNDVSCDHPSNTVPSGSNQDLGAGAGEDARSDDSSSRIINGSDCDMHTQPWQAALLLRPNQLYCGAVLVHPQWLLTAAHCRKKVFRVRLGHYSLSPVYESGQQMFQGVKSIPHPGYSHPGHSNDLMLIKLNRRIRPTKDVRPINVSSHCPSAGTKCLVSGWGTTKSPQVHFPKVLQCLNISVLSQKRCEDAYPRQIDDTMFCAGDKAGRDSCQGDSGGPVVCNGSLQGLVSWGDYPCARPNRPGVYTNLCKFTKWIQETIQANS
Summary of the method: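 Recombinant human KLK5 (0.1 μg/well) was preincubated with compound at room temperature in 0.1 M NaH2PO4, pH 7.5, 1% DMSO, then started with 100 μM Boc-VPR-AMC. The rate was followed at 380/460 nm, and IC50 came from percent inhibition relative to enzyme alone, with at least three runs.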

| IC50 [µM] | Compound |
| --- | --- |
| 1 to 10 | Nc1nccc2ccc(-c3ccc4nn(C5CC(N)C5)c(COc5ccccc5CC(=O)O)c4c3)cc12 (stereo not drawn) [Compound 138b, 2-(2-((2-(3-aminocyclobutyl)-5-(1-aminoisoquinolin-7-yl)-2H-indazol-3-yl)methoxy)phenyl)acetic acid] |
| 1 to 10 | Nc1nccc2c(-c3ccc4nn(CC5CNC5)c(COc5ccccc5CC(=O)O)c4c3)cccc12 [Compound 140b, 2-(2-((5-(1-aminoisoquinolin-5-yl)-2-(azetidin-3-ylmethyl)-2H-indazol-3-yl)methoxy)phenyl)acetic acid] |
| < 1 | COCCN1CC(n2nc(COc3ccccc3CC(=O)O)c3cc(-c4cccc5c(N)nccc45)ccc32)C1 [Compound 143d, 2-(2-((5-(1-aminoisoquinolin-5-yl)-1-(1-(2-methoxyethyl)azetidin-3-yl)-1H-indazol-3-yl)methoxy)phenyl)acetic acid] |
| < 1 | CC(C)CCN1CC(n2nc(COc3ccccc3CC(=O)O)c3cc(-c4cccc5c(N)nccc45)ccc32)C1 [Compound 144c, 2-(2-((5-(1-aminoisoquinolin-5-yl)-1-(1-isopentylazetidin-3-yl)-1H-indazol-3-yl)methoxy)phenyl)acetic acid] |
| < 1 | COCCN1CC(n2nc(COc3ccccc3CC(=O)O)c3cc(-c4ccc5ccnc(N)c5c4)ccc32)C1 [Compound 145b, 2-(2-((5-(1-aminoisoquinolin-7-yl)-1-(1-(2-methoxyethyl)azetidin-3-yl)-1H-indazol-3-yl)methoxy)phenyl)acetic acid] |
| < 1 | CC(C)CCN1CC(n2nc(COc3ccccc3CC(=O)O)c3cc(-c4ccc5ccnc(N)c5c4)ccc32)C1 [Compound 146b, 2-(2-((5-(1-aminoisoquinolin-7-yl)-1-(1-isopentylazetidin-3-yl)-1H-indazol-3-yl)methoxy)phenyl)acetic acid] |
| < 1 | Nc1nccc2c(-c3ccc4c(c3)c(COc3ccccc3CC(=O)O)nn4C3CN(CCO)C3)cccc12 [Compound 147c, 2-(2-((5-(1-aminoisoquinolin-5-yl)-1-(1-(2-hydroxyethyl)azetidin-3-yl)-1H-indazol-3-yl)methoxy)phenyl)acetic acid] |
| < 1 | Nc1nccc2ccc(-c3ccc4c(c3)c(COc3ccccc3CC(=O)O)nn4C3CN(CCO)C3)cc12 [Compound 148b, 2-(2-((5-(1-aminoisoquinolin-7-yl)-1-(1-(2-hydroxyethyl)azetidin-3-yl)-1H-indazol-3-yl)methoxy)phenyl)acetic acid] |
| 1 to 10 | Nc1nccc2ccc(-c3ccc4nn(C5CCC5)c(COc5cc(F)ccc5CC(=O)O)c4c3)cc12 [Compound 149d, 2-(2-((5-(1-aminoisoquinolin-7-yl)-2-cyclobutyl-2H-indazol-3-yl)methoxy)-4-fluorophenyl)acetic acid] |
| < 1 | Nc1nccc2c(-c3ccc4nn(C5CCC5)c(COc5cc(F)ccc5CC(=O)O)c4c3)cccc12 [Compound 150b, 2-(2-((5-(1-aminoisoquinolin-5-yl)-2-cyclobutyl-2H-indazol-3-yl)methoxy)-4-fluorophenyl)acetic acid] |
| > 10 | Nc1nccc2ccc(-c3ccc4nn(C5CCC5)c(COc5cc(C(F)(F)F)ccc5CC(=O)O)c4c3)cc12 [Compound 151d, 2-(2-((5-(1-aminoisoquinolin-7-yl)-2-cyclobutyl-2H-indazol-3-yl)methoxy)-4-(trifluoromethyl)phenyl)acetic acid] |
| 1 to 10 | Nc1nccc2c(-c3ccc4nn(C5CCC5)c(COc5cc(C(F)(F)F)ccc5CC(=O)O)c4c3)cccc12 [Compound 152b, 2-(2-((5-(1-aminoisoquinolin-5-yl)-2-cyclobutyl-2H-indazol-3-yl)methoxy)-4-(trifluoromethyl)phenyl)acetic acid] |
| > 10 | Nc1nccc2ccc(-c3ccc4nn(C5CCC5)c(COc5cc(OC(F)(F)F)ccc5CC(=O)O)c4c3)cc12 [Compound 153d, 2-(2-((5-(1-aminoisoquinolin-7-yl)-2-cyclobutyl-2H-indazol-3-yl)methoxy)-4-(trifluoromethoxy)phenyl)acetic acid] |
| 1 to 10 | Nc1nccc2c(-c3ccc4nn(C5CCC5)c(COc5cc(OC(F)(F)F)ccc5CC(=O)O)c4c3)cccc12 [Compound 154b, 2-(2-((5-(1-aminoisoquinolin-5-yl)-2-cyclobutyl-2H-indazol-3-yl)methoxy)-4-(trifluoromethoxy)phenyl)acetic acid] |
| 1 to 10 | Cc1ccc(OCc2c3cc(-c4ccc5ccnc(N)c5c4)ccc3nn2C2CCC2)c(CC(=O)O)c1 [Compound 155d, 2-(2-((5-(1-aminoisoquinolin-7-yl)-2-cyclobutyl-2H-indazol-3-yl)methoxy)-5-methylphenyl)acetic acid] |
| 1 to 10 | Cc1ccc(OCc2c3cc(-c4cccc5c(N)nccc45)ccc3nn2C2CCC2)c(CC(=O)O)c1 [Compound 156b, 2-(2-((5-(1-aminoisoquinolin-5-yl)-2-cyclobutyl-2H-indazol-3-yl)methoxy)-5-methylphenyl)acetic acid] |
| 1 to 10 | COc1ccc(OCc2c3cc(-c4ccc5ccnc(N)c5c4)ccc3nn2C2CCC2)c(CC(=O)O)c1 [Compound 157d, 2-(2-((5-(1-aminoisoquinolin-7-yl)-2-cyclobutyl-2H-indazol-3-yl)methoxy)-5-methoxyphenyl)acetic acid] |
| 1 to 10 | COc1ccc(OCc2c3cc(-c4cccc5c(N)nccc45)ccc3nn2C2CCC2)c(CC(=O)O)c1 [Compound 158b, 2-(2-((5-(1-aminoisoquinolin-5-yl)-2-cyclobutyl-2H-indazol-3-yl)methoxy)-5-methoxyphenyl)acetic acid] |
| 1 to 10 | Cc1cccc(CC(=O)O)c1OCc1nn(C2CCC2)c2ccc(-c3ccc4ccnc(N)c4c3)cc12 [Compound 159g, 2-(2-((5-(1-aminoisoquinolin-7-yl)-1-cyclobutyl-1H-indazol-3-yl)methoxy)-3-methylphenyl)acetic acid] |
| 1 to 10 | Cc1cccc(CC(=O)O)c1OCc1nn(C2CCC2)c2ccc(-c3cccc4c(N)nccc34)cc12 [Compound 160b, 2-(2-((5-(1-aminoisoquinolin-5-yl)-1-cyclobutyl-1H-indazol-3-yl)methoxy)-3-methylphenyl)acetic acid] |
| < 1 | Cc1cccc(OCc2nn(C3CCC3)c3ccc(-c4ccc5ccnc(N)c5c4)cc23)c1CC(=O)O [Compound 161c, 2-(2-((5-(1-aminoisoquinolin-7-yl)-1-cyclobutyl-1H-indazol-3-yl)methoxy)-6-methylphenyl)acetic acid] |
| < 1 | Cc1cccc(OCc2nn(C3CCC3)c3ccc(-c4cccc5c(N)nccc45)cc23)c1CC(=O)O [Compound 162b, 2-(2-((5-(1-aminoisoquinolin-5-yl)-1-cyclobutyl-1H-indazol-3-yl)methoxy)-6-methylphenyl)acetic acid] |
| < 1 | Cc1ccc(CC(=O)O)c(OCc2nn(C3CCC3)c3ccc(-c4cccc5c(N)nccc45)cc23)c1 [Compound 163c, 2-(2-((5-(1-aminoisoquinolin-5-yl)-1-cyclobutyl-1H-indazol-3-yl)methoxy)-4-methylphenyl)acetic acid] |
| 1 to 10 | Cc1ccc(OCc2nn(C3CCC3)c3ccc(-c4ccc5ccnc(N)c5c4)cc23)c(CC(=O)O)c1 [Compound 164c, 2-(2-((5-(1-aminoisoquinolin-7-yl)-1-cyclobutyl-1H-indazol-3-yl)methoxy)-5-methylphenyl)acetic acid] |
| < 1 | Cc1ccc(OCc2nn(C3CCC3)c3ccc(-c4cccc5c(N)nccc45)cc23)c(CC(=O)O)c1 [Compound 165b, 2-(2-((5-(1-aminoisoquinolin-5-yl)-1-cyclobutyl-1H-indazol-3-yl)methoxy)-5-methylphenyl)acetic acid] |
| < 1 | Nc1nccc2ccc(-c3ccc4c(c3)c(COc3ccc(F)cc3CC(=O)O)nn4C3CCC3)cc12 [Compound 166d, 2-(2-((5-(1-aminoisoquinolin-7-yl)-1-cyclobutyl-1H-indazol-3-yl)methoxy)-5-fluorophenyl)acetic acid] |

| Compound | IC50 [µM] |
| --- | --- |
| CC(C)(C)OC(=O)NC1CC(n2nc3ccc(-c4ccc5ccnc(N)c5c4)cc3c2COc2ccccc2CC(=O)O)C1 (stereo not drawn) [Compound 137b, 2-(2-((5-(1-aminoisoquinolin-7-yl)-2-(3-(tert-butoxycarbonylamino)cyclobutyl)-2H-indazol-3-yl)methoxy)phenyl)acetic acid] | 1 to 10 |
| CC(C)(C)OC(=O)N1CC(Cn2nc3ccc(-c4cccc5c(N)nccc45)cc3c2COc2ccccc2CC(=O)O)C1 [Compound 139f, 2-(2-((5-(1-aminoisoquinolin-5-yl)-2-((1-(tert-butoxycarbonyl)azetidin-3-yl)methyl)-2H-indazol-3-yl)methoxy)phenyl)acetic acid] | < 1 |
| CC(C)(C)OC(=O)N1CC(Cn2nc3ccc(-c4ccc5ccnc(N)c5c4)cc3c2COc2ccccc2CC(=O)O)C1 [Compound 141b, 2-(2-((5-(1-aminoisoquinolin-7-yl)-2-((1-(tert-butoxycarbonyl)azetidin-3-yl)methyl)-2H-indazol-3-yl)methoxy)phenyl)acetic acid] | 1 to 10 |
| CC(C)(C)OC(=O)N1CC(n2nc(COc3ccccc3CC(=O)O)c3cc(-c4cccc5c(N)nccc45)ccc32)C1 [Compound 142b, 2-(2-((5-(1-aminoisoquinolin-5-yl)-1-(1-(tert-butoxycarbonyl)azetidin-3-yl)-1H-indazol-3-yl)methoxy)phenyl)acetic acid] | < 1 |
